Laboratory results published in ChEMBL document CHEMBL1136851, “Identification of 4-hydroxyquinolines inhibitors of p300/CBP histone acetyltransferases” (Bioorg Med Chem Lett, 2009).
Calls of active or inactive are those of the source. No cut-off for these calls is given here.

Legend:
[1] = molecular target: Histone acetyltransferase KAT2A (Homo sapiens) (UniProt Q92830); experiment: Inhibition of human histone acetyltransferase GCN5 in U937 cell nuclear extracts assessed as remaining enzyme activity at 50 uM; format: cell-free; details: U-937
Chain of Histone acetyltransferase KAT2A (Homo sapiens) (Q92830 2-837 limits assumed): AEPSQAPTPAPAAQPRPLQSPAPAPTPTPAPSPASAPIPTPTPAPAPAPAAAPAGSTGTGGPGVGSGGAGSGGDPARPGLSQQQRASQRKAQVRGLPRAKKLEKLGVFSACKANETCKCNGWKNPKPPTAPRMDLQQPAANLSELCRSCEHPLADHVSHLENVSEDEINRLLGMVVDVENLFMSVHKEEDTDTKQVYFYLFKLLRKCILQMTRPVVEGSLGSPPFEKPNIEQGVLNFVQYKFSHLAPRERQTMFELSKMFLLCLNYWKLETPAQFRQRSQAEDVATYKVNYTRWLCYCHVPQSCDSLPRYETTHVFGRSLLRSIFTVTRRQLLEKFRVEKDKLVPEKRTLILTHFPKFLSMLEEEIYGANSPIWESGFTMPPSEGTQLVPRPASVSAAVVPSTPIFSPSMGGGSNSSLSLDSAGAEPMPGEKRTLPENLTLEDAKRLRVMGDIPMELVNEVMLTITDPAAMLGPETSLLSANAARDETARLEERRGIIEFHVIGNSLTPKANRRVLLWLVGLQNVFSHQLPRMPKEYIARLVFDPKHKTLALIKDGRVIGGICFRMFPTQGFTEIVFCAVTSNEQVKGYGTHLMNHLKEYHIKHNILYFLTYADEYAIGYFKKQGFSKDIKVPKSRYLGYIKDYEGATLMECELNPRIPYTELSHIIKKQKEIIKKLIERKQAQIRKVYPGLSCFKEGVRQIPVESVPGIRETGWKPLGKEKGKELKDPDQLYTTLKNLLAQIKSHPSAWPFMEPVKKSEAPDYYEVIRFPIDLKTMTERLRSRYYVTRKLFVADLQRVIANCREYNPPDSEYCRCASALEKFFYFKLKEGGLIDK

[2] = molecular target: Histone acetyltransferase KAT2B (Homo sapiens) (UniProt Q92831); experiment: Inhibition of human GST-fused histone acetyltransferase PCAF in U937 cell nuclear extracts assessed as remaining enzyme activity at 50 uM; format: cell-free; details: U-937
Chain of Histone acetyltransferase KAT2B (Homo sapiens) (Q92831 whole entry, looked up, the tested form may be a part): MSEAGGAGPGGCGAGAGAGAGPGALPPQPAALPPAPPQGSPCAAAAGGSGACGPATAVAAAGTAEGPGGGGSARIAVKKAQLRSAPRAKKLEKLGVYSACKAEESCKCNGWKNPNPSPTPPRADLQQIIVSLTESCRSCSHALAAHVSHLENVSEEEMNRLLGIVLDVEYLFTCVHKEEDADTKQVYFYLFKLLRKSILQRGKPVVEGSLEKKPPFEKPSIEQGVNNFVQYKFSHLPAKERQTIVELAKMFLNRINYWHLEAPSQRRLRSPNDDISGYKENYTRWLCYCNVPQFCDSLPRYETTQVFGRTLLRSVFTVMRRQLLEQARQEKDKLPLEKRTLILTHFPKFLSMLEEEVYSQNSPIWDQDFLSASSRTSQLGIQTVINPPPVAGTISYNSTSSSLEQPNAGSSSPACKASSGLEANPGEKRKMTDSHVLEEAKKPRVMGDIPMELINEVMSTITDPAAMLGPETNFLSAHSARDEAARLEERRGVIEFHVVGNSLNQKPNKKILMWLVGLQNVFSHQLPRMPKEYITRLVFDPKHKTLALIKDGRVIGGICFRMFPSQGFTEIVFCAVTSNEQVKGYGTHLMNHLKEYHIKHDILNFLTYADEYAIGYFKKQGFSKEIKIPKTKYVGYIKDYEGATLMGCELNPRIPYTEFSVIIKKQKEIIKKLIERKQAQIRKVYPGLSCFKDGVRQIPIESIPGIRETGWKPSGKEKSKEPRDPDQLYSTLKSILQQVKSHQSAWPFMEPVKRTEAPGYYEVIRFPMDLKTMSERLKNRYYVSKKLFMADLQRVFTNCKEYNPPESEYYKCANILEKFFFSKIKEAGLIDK

[3] = molecular target: Histone acetyltransferase p300 (Homo sapiens) (UniProt Q09472); experiment: Inhibition of human immunoprecipitated histone acetyltransferase p300 in U937 cell nuclear extracts assessed as remaining enzyme activity at 50 uM; format: cell-free; details: U-937
[4] = molecular target: CREB-binding protein (Homo sapiens) (UniProt Q92793); experiment: Inhibition of human GST-fused histone acetyltransferase CBP in U937 cell nuclear extracts assessed as remaining enzyme activity at 50 uM; format: cell-free; details: U-937
Chain of CREB-binding protein (Homo sapiens) (Q92793 2-2442 limits assumed): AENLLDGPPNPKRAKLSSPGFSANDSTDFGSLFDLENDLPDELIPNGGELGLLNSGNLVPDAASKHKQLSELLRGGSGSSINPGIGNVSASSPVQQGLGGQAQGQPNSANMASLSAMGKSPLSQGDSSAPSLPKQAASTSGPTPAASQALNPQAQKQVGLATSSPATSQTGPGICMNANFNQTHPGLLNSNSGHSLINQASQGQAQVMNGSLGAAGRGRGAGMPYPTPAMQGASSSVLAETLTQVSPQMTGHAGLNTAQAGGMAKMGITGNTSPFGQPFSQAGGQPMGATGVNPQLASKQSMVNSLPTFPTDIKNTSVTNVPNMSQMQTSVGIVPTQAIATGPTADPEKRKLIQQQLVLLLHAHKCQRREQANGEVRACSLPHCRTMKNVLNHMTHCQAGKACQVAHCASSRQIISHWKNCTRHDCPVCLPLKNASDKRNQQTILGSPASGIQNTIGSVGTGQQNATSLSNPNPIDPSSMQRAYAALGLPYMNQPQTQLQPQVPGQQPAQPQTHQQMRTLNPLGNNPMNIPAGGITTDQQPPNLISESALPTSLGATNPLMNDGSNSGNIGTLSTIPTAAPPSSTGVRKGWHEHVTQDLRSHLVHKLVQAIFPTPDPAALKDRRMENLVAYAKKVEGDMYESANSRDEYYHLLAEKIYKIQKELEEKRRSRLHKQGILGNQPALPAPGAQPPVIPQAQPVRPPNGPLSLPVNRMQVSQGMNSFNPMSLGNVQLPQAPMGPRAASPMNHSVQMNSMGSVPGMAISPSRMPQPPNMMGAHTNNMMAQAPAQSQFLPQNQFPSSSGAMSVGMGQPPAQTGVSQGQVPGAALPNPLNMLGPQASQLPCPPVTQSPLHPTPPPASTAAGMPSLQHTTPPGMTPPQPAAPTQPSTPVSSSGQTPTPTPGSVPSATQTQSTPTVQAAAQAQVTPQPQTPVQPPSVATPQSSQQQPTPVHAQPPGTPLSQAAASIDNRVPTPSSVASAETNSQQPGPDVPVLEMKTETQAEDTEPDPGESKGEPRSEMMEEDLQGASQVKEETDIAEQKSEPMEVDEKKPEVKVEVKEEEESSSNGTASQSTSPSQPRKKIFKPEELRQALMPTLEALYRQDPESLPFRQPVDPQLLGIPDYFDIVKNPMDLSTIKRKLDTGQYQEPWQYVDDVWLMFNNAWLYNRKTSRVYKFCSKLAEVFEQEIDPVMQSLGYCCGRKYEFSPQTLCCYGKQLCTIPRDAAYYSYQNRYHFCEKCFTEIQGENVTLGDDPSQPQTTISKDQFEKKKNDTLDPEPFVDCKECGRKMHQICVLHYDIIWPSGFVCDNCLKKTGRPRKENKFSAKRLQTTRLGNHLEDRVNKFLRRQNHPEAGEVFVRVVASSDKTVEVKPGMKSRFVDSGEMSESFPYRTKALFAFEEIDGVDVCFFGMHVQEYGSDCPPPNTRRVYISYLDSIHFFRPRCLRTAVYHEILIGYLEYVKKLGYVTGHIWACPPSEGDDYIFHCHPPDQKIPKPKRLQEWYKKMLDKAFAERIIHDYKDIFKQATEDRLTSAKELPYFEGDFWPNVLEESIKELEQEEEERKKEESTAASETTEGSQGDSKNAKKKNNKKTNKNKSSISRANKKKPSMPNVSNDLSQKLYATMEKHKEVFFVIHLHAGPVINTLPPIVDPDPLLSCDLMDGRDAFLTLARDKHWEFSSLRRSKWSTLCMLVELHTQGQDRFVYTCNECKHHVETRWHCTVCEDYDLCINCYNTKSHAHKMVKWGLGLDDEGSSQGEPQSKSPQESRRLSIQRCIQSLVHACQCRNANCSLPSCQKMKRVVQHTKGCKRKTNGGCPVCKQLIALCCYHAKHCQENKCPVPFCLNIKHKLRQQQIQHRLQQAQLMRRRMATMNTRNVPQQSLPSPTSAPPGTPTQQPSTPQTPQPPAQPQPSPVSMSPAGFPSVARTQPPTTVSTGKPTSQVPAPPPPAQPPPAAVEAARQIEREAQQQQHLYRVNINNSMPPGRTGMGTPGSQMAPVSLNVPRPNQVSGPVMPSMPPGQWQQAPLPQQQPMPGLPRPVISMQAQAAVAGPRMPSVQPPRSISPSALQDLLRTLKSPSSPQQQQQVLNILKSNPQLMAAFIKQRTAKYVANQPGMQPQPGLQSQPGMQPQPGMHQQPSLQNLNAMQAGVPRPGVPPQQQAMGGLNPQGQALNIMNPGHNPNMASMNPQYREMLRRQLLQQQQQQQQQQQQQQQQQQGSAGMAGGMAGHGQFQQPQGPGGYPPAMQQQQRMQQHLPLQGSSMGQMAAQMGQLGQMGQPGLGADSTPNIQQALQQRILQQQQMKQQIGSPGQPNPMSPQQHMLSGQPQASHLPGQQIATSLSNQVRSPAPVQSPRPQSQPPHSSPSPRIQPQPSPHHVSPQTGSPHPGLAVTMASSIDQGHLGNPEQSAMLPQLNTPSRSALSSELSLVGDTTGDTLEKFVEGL

U-937 [5] = experiment: Inhibition of human histone acetyltransferase in U937 cell nuclear extracts at 50 uM; format: cell-free
U-937 [6] = experiment: Cell cycle arrest in human U937 cells assessed as loss of accumulation at G2 phase at 20 nM after 24 hrs; format: functional, cell-based
U-937 [7] = experiment: Induction of cell differentiation in human U937 cells assessed as cytodifferentiation at 20 uM after 24 hrs by CD11c/PI method; format: functional, cell-based
U-937 [8] = experiment: Inhibition of SAHA-induced histone H3 acetylation in human U937 cells at 100 uM after 4 hrs by Western blot analysis; format: functional, cell-based
U-937 [9] = experiment: Inhibition of SAHA-induced alpha tubulin acetylation in human U937 cells at 100 uM after 4 hrs by Western blot analysis; format: functional, cell-based
U-937 [10] = experiment: Cell cycle arrest in human U937 cells assessed as accumulation at G1/S phase at 20 nM after 24 hrs; format: functional, cell-based
U-937 [11] = experiment: Induction of apoptosis in human U937 cells at 100 uM by annexin V/propidium iodide double staining; format: functional, cell-based
U-937 [12] = experiment: Induction of apoptosis in human U937 cells at 20 uM by annexin V/propidium iodide double staining; format: functional, cell-based

SMILES | Activity [1] | Activity [2] | Activity [3] | Activity [4] | inhibition (U-937 [5]) | Activity (U-937 [6]) | Activity (U-937 [7]) | Activity (U-937 [8]) | Activity (U-937 [9]) | Activity (U-937 [10]) | Activity (U-937 [11]) | Activity (U-937 [12])
C=C1C(=O)O[C@H](CCC)[C@H]1C(=O)O | 54.5% | 76.8% | 58.6% | 45.9% | 44% |  |  |  |  |  |  | 
CCCCCCCCCCCCCCCc1nc2ccccc2c(O)c1C(=O)OCC | 96.8% | 82.4% | 39.8% | 116% |  | Active | Active | Active | Active | Active | Active | Active
C=CC/C=C\C/C=C\CCCCCCCc1cccc(O)c1C(=O)O | 113% | 52.1% | 53.1% | 44% | 15% |  |  |  |  |  |  | 
CCOC(=O)c1c(C)nc2ccccc2c1O | 97.4% | 81.7% | 16.4% | 13.4% |  | inactive | Active | Active | inactive | inactive |  | 
Cc1nc2ccccc2c(O)c1C(=O)O | 97.4% | 104% | 11.4% | 20.5% |  | inactive | Active | Active | Active | inactive |  | 
CCCCCCCCCCc1nc2ccccc2c(O)c1C(=O)OCC | 93.4% | 90.1% | 39.1% | 93.4% |  | Active | Active | Active | inactive | Active | Active | Active
CCCCCc1nc2ccccc2c(O)c1C(=O)O | 98% | 103% | 82% | 19% | 30% | inactive | Active | Active | Active | inactive |  | 
CCCCCc1nc2ccccc2c(O)c1C(=O)OCC | 102% | 100% | 47.7% | 91.2% |  | inactive | Active | Active | Active | inactive |  | 
CCCCCCCCCCCCCCCc1nc2ccccc2c(O)c1C(=O)O | 103% | 62.7% | 46.9% | 14.4% |  | inactive | Active | Active | Active | inactive |  | 
CCCCCCCCCCc1nc2ccccc2c(O)c1C(=O)O | 95.4% | 91.5% | 53.9% | 13.2% |  | inactive | Active | Active | Active | inactive |  | 
